Laboratory results taken from patent US20190169140A1, “IDO1 INHIBITOR AND PREPARATION METHOD AND APPLICATION THEREOF” (SHANDONG LUYE PHARMACEUTICAL CO., LTD., priority 2016, published 2019).

Tests used:
[1] = Test for permeability across MDR1; assay type: in vitro ADME; conditions: dog, MDCK-MDR1
Experimental: Test for Permeability Across MDR1
A sample for test was dissolved in dimethyl sulfoxide (DMSO) or other suitable solvents, to be prepared into 10 mM stock solution. A suitable internal standard (IS) was dissolved in acetonitrile (ACN) or other organic solvents as a stop solution. Specific information would be described in a research report.
Fenoterol, propranolol, and digoxin acted as low-permeability control, high-permeability control, and P-gp substrate in the present research. The stock solutions of these compounds were prepared with DMSO, stocked at 2-8° C., and valid for use within 3 months.
In the present project, a Hank's balanced salt buffer containing 10 mM HEPES was used as a transport buffer.
MDR1-MDCK II cells were cultivated using α-MEM culture media (α-Minimum Essential Media), with a culture condition of 37±1° C., 5% CO2, and saturated relative humidity. Afterwards, the cells were inoculated into a BD Transwell-96-well plate (BD Gentest), with an inoculation density of 2.3×10^5 cells/cm^2, then the cells were placed in a carbon dioxide incubator to be incubated for 4-7 days, and then used for a transport experiment.
A solution to be used was placed in a 37±1° C. water bath kettle to be pre-incubated for 30 minutes. The donor solution and the receiver solution were respectively added to corresponding sides of wells of cell plate (to an apical side and a basolateral side, 75 μL and 250 μL of samples were added respectively), and experiment of bidirectional transport was started. After the addition of the samples, the cell plate was placed in a 37±1° C., 5% CO2 incubator with saturated relative humidity to be incubated for 150 minutes.
The samples were all centrifuged at 3220 g for 10 minutes after being shaken in a vortex manner. A suitable volume of a supernatant was transferred to a sample analyzing plate. If analysis was not carried out immediately after the plate was sealed, the plate was stored at 2-8° C. The analysis was carried out through a method of LC/MS/MS.
The sample for test, fenoterol control, propranolol control, and digoxin were analyzed in a semiquantitative manner, and specific values of analytes to a peak area of the internal standard were taken as concentration of the controls.

[2] = target: T1, recombinant human IDO1 enzyme (Homo sapiens, UniProt P14902); experiment: Test of hIDO1 for enzymatic activity in vitro (NFK Green fluorescence); assay type: biochemical
T1 construct: purchased NTRC (Netherlands Translational Research Center) NTRC-hIDO-10K
T1 sequence (P14902 whole entry): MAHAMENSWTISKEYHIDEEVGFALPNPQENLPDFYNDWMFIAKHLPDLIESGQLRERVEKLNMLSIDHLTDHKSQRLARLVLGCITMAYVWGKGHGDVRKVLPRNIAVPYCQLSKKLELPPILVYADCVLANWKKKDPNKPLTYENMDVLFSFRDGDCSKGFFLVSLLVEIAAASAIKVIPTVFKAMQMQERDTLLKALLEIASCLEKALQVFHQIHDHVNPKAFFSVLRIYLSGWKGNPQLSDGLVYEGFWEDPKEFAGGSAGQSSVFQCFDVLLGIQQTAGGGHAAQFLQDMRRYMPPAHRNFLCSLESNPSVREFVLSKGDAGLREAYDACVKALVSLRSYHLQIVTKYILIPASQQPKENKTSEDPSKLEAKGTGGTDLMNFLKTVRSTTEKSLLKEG
Experimental: 1. Test of hIDO1 for Enzymatic Activity In Vitro
1.1 Purpose of Experiment:
Changes in production of NFK, an IDO1 enzymatic metabolite were detected with NFK Green™ fluorescent molecules. With an IC50 value of a compound as an index, an inhibitory effect of the compound on recombinant human IDO1 enzyme was evaluated.
The compound was diluted with dimethyl sulfoxide (DMSO) to 1 mM, with 10 gradients, each 3-fold dilution, in duplicate. 48 μL of 50 mM phosphate buffer, having pH of 6.5, was transferred by the Bravo automatic liquid processing platform to the compound plate. Then 2 μL of an already diluted compound/DMSO solution was added. After even mixing, 10 μL of the resultant mixture was transferred to the enzymatic reaction plate.
IDO1 enzyme was diluted to 20 nM in a reaction buffer (50 mM phosphate buffer with pH of 6.5, 0.1% of Tween-20, 2% of glycerol, 20 mM ascorbic acid, 20 μg/ml catalase, and 20 μM methylene blue), 20 μL of the diluted IDO1 enzyme was transferred to the enzymatic reaction plate, and incubated at 23° C. for 30 minutes. 10 μL of 400 μM L-type tryptophan substrate was added to start reaction. The incubation lasted at 23° C. for 90 minutes. 10 μL of NFK Green™ fluorescent dye was added. The resultant mixture was sealed with the plate sealing film. After incubation at 37° C. for 4 hours, an Envision multi-functional plate reader was used for reading (Ex 400 nm/Em 510 nm).
A reference well to which the IDO1 enzyme was added but no compound was added was set to have an inhibition rate of 0%, and a reference well to which no IDO1 enzyme was added was set to have an inhibition rate of 100%. Data was analyzed with XLFit 5 to calculate an IC50 value of the compound.

[3] = target: T2, IDO1 enzyme in Hela cells (Homo sapiens, UniProt P14902); experiment: Test of hIDO1 for cytological activity (Hela cell kynurenine by LCMS, interferon-γ induced); assay type: cell-based; conditions: interferon-γ 100 ng/ml, 20 hours
T2 construct: endogenous in cells; host or cells: Hela cells, induced with recombinant human interferon-γ
T2 sequence (P14902 whole entry): as above
Experimental: 2. Test of hIDO1 for Cytological Activity
Changes in Hela cell kynurenine were detected by an LCMS method. With an IC50 value of a compound as an index, an inhibitory effect of the compound on IDO1 enzyme was evaluated.
The culture medium, trypsin, and DPBS were preheated in water bath at 37° C. The culture medium was removed by sucking from cell culture, followed by cleaning the cell culture with 10 mL of DPBS; the preheated trypsin was added to the culture flask, which was revolved to make the culture flask covered by trypsin uniformly, and placed into an incubator at 37° C. with 5% CO2 for digestion for 1-2 minutes; 10-15 mL of the culture medium was used to suspend cells each T150, followed by centrifugation at 800 rpm for 5 minutes. 10 mL of the culture medium was used to resuspend the cells. 1 mL of the cell resuspension was pipetted, and counted with Vi-cell; the Hela cells were diluted to 5×10^5/mL with the culture medium, 80 μL of the diluted Hela cells were added to the 96-well cell plate, and incubated in the an incubator at 37° C. with 5% CO2 for 5-6 hours.
The compound was diluted with DMSO to 1 mM, with 9 gradients, each 3-fold dilution, in duplicate. 5 μL of the already diluted compound DMSO solution was added to the compound plate containing 95 μL of the culture medium. After even mixing, 10 μL of the mixture was transferred to the cell plate.
10 μL of recombinant human interferon-γ was added to result in a final concentration of 100 ng/ml, to induce expression of IDO1. Incubation was carried out in the 5% CO2 incubator at 37° C. for 20 hours. 4 μL of 5% (w/v) trichloroacetic acid was added, followed by even mixing and incubation at 50° C. for 30 minutes. After centrifugation at 2400 rpm for 10 minutes, 40 μL of a supernatant was added to a 96-well V-bottom plate, followed by addition of a precipitant. Centrifugation was carried out at 4000 rpm for 10 minutes after even mixing. 100 μL of the supernatant was transferred to a new 96-well V-bottom plate. A content of kynurenine was detected through LCMS.
A reference well to which the interferon-γ was added but no compound was added was set to have an inhibition rate of 0%, and a reference well to which no Hela cell was added was set to have an inhibition rate of 100%. Data was analyzed with XLFit 5 to calculate an IC50 value of the compound.

Work on CCS(=O)(=O)NCCSc1nonc1/C(=N/O)Nc1ccc(F)c(Br)c1 [Compound 0228] yielded a Papp A→B at 150 min, 2 µM [1] of 6.78 ×10⁻⁶ cm/s, a Papp B→A at 150 min, 2 µM [1] of 10.5 ×10⁻⁶ cm/s and an IC50 [2] of 101 nM. It also gave an IC50 [3] of 3.97 nM.

In the case of CS(=O)(=O)NCCSc1nonc1/C(=N/O)Nc1ccc(F)c(Br)c1 [Compound 0229], the IC50 [2] is reported as 80.1 nM and the IC50 [3] is reported as 11.2 nM.

Compound CNC(=O)NCCSc1nonc1/C(=N/O)Nc1ccc(F)c(Br)c1 [Compound 0233] has an IC50 [2] of 109 nM and an IC50 [3] of 19.2 nM.

O=C(NCCSc1nonc1/C(=N/O)Nc1ccc(F)c(Br)c1)NC1CC1 [Compound 0234] gave an IC50 [2] of 77 nM and an IC50 [3] of 9.58 nM.

In the case of O=C(NCCSc1nonc1/C(=N/O)Nc1ccc(F)c(Br)c1)C1CC1 [Compound 0236], the IC50 [2] is reported as 129 nM and the IC50 [3] is reported as 55.4 nM.

For CNC(=O)CSc1nonc1/C(=N/O)Nc1ccc(F)c(Br)c1 [Compound 0237], the IC50 [2] was 42.3 nM and the IC50 [3] was 8.51 nM.

Compound CNC(=O)CCSc1nonc1/C(=N/O)Nc1ccc(F)c(Br)c1 [Compound 0238] has an IC50 [2] of 85.4 nM and an IC50 [3] of 13.9 nM.

With CNS(=O)(=O)NCCSc1nonc1/C(=N/O)Nc1ccc(F)c(Br)c1 [Compound 0240] the IC50 [2] was 128 nM and the IC50 [3] was 26.2 nM.

In the case of O=CNCCSc1nonc1/C(=N/O)Nc1ccc(F)c(Br)c1 [Compound 0245], the IC50 [2] is reported as 74.4 nM and the IC50 [3] is reported as 14.8 nM.

For O=C(CSc1nonc1/C(=N/O)Nc1ccc(F)c(Br)c1)NC1CC1 [Compound 0247], the IC50 [2] was 95.7 nM and the IC50 [3] was 17.1 nM.

With N#CCC(=O)NCCSc1nonc1/C(=N/O)Nc1ccc(F)c(Br)c1 [Compound 0249] the IC50 [2] was 164 nM and the IC50 [3] was 30.3 nM.

Work on COC(=O)NCCSc1nonc1/C(=N/O)Nc1ccc(F)c(Br)c1 [Compound 0250] yielded an IC50 [2] of 138 nM and an IC50 [3] of 27 nM.

In the case of NC(=O)CSc1nonc1/C(=N/O)Nc1ccc(F)c(Br)c1 [Compound 0251], the IC50 [2] is reported as 44.3 nM and the IC50 [3] is reported as 7.15 nM.

Work on O=C(CSc1nonc1/C(=N/O)Nc1ccc(F)c(Br)c1)NO [Compound 0260] yielded an IC50 [2] of 74.6 nM and an IC50 [3] of 31.5 nM.

In the case of NC(=O)CCSc1nonc1/C(=N/O)Nc1ccc(F)c(Br)c1 [Compound 0262], the IC50 [2] is reported as 89.6 nM and the IC50 [3] is reported as 70.8 nM.

NS(=O)(=O)NCCSc1nonc1/C(=N/O)Nc1ccc(F)c(I)c1 [Compound 0273] showed an IC50 [2] of 144 nM and an IC50 [3] of 34.4 nM.

Compound O=C(NCCSc1nonc1/C(=N/O)Nc1ccc(F)c(Br)c1)C(F)F [Compound 0287] has an IC50 [2] of 69.4 nM and an IC50 [3] of 12.9 nM.

With O=C(CO)NCCSc1nonc1/C(=N/O)Nc1ccc(F)c(Br)c1 [Compound 0293] the IC50 [2] was 60.1 nM and the IC50 [3] was 29.5 nM.

Work on NS(=O)(=O)NCCSc1nonc1/C(=N/O)Nc1cccc(I)c1 [Compound 0295] yielded an IC50 [2] of 122 nM and an IC50 [3] of 47.2 nM.

NC(=O)NCCSc1nonc1/C(=N/O)Nc1cccc(I)c1 [Compound 0309] showed an IC50 [2] of 54.5 nM and an IC50 [3] of 23.5 nM.

Compound N#C/N=C(\N)NCCSc1nonc1/C(=N/O)Nc1ccc(F)c(Br)c1 [Compound 0310] has an IC50 [2] of 97.3 nM and an IC50 [3] of 12.8 nM.

With N=C(N)NCCSc1nonc1/C(=N/O)Nc1ccc(F)c(Br)c1 [Compound 0383] the IC50 [2] was 100 nM and the IC50 [3] was 105 nM.

In the case of N=C(N)NC(=N)NCCSc1nonc1/C(=N/O)Nc1ccc(F)c(Br)c1 [Compound 0384], the IC50 [2] is reported as 173 nM and the IC50 [3] is reported as 152 nM.
